This assay has as its target T1, glucocorticoid receptor (Homo sapiens, UniProt P04150).
T1 construct: endogenous in cells
T1 sequence (P04150 1-777): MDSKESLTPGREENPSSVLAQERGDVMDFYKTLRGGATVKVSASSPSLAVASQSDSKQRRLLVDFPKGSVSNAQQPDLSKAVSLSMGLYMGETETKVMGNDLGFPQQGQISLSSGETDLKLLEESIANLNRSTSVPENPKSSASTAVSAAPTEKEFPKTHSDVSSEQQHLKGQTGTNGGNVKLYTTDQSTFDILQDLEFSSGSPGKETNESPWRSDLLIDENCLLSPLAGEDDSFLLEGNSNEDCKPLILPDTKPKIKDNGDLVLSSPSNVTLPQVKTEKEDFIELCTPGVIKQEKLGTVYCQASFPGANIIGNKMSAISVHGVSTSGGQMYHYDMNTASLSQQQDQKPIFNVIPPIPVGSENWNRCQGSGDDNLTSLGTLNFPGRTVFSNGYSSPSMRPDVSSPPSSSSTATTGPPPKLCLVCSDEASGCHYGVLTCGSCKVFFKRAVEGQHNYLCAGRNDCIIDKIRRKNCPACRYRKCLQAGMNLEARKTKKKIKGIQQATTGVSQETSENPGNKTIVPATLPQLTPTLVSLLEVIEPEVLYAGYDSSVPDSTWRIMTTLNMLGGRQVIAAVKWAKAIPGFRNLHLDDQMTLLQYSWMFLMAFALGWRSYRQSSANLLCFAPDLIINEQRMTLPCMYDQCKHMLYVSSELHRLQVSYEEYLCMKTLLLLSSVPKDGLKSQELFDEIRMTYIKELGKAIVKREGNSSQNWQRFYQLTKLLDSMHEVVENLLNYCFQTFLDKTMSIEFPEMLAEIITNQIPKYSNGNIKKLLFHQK
The assay can be described thus: Ligand binding assay (GR BIND). The protocol: • Materials: • Binding Buffer: TEGM (10 mM Tris-HCl, 1 mM EDTA, 10% glycerol, 1 mM beta-mecaptoethanol, 10 mM Sodium Molybdate, pH 7.2) • 50% HAP Slurry: Calbiochem Hydroxylapatite, Fast Flow, in 10 mM Tris, pH 8.0 and 1 mM EDTA. • Wash Buffer: 40 mM Tris, pH7.5, 100 mM KCl, 1 mM EDTA and 1 mM EGTA.
Phenol red-free Trypsin-EDTA is diluted in the same PBS1:10. The cell layers are rinsed with 1× Trypsin, extra Trypsin is poured out, and the cell layers are incubated at 37° C. for ˜2 min. The flask is tapped and checked for signs of cell detachment. Once the cells begin to slide off the flask, the complete media is added. The cells are counted at this point, then diluted to the appropriate concentration and split into flasks or dishes for further culturing (Usually 1:3 to 1:6 dilution).
When the cells are 70 to 85% confluent, they are detached as described above, and collected by centrifuging at 1000 g for 10 minutes at 4° C. The cell pellet is washed twice with TEGM (10 mM Tris-HCl, 1 mM EDTA, 10% glycerol, 1 mM beta-mercaptoethanol, 10 mM Sodium Molybdate, pH 7.2). After the final wash, the cells are resuspended in TEGM at a concentration of 10^7 cells/mL. The cell suspension is snap frozen in liquid nitrogen or ethanol/dry ice bath and transferred to −80° C. freezer on dry ice. Before setting up the binding assay, the frozen samples are left on ice-water to just thaw (˜1 hr). Then the samples are centrifuged at 12,500 g to 20,000 g for 30 min at 4° C. The supernatant is used to set-up assay right away. If using 50 μL of supernatant, the test compound can be prepared in 50 μL of the TEGM buffer.
1×TEGM buffer is prepared, and the isotope-containing assay mixture is prepared in the following order: EtOH (2% final concentration in reaction), 3H-DEX (Amersham Biosciences) and 1×TEGM. [e.g. For 100 samples, 200 μL (100×2) of EtOH+4.25 μL of 1:10 ^3H—Dex stock+2300 μL (100×23) 1×TEGM]. The compound is serially diluted, e.g., if starting final conc. is 1 μM, and the compound is in 25 μL of solution, for duplicate samples, 75 μL of 4×1 μM solution is made and 3 μL of 100 μM is added to 72 μL of buffer, and 1:5 serial dilution.
25 μL of ^3H-DEX (6 nM) trace and 25 μL compound solution are first mixed together, followed by addition of 50 μL receptor solution. The reaction is gently mixed, spun briefly at about 200 rpm and incubated at 4° C. overnight. 100 μL of 50% HAP slurry is prepared and added to the incubated reaction which is then vortexed and incubated on ice for 5 to 10 minutes. The reaction mixture is vortexed twice more to resuspend HAP while incubating reaction. The samples in 96-well format are then washed in wash buffer using The FilterMate™ Universal Harvester plate washer (Packard). The washing process transfers HAP pellet containing ligand-bound expressed receptor to Unifilter-96 GF/B filter plate (Packard). The HAP pellet on the filter plate is incubated with 50 μL of MICROSCINT (Packard) scintillint for 30 minutes before being counted on the TopCount microscintillation counter (Packard). […] are calculated using DEX as a reference.

The structures appear in SMILES notation.

Experimental findings from patent US8299048B2, “Hexahydrocyclopentyl[f]indazole sulfonamides and derivatives thereof as selective glucocorticoid receptor modulators” (Merck Sharp & Dohme Corp., priority 2008, dated 2012) are described below.

The term Ki denotes the equilibrium dissociation constant of an inhibitor or competing ligand from its target. In turn, `C[C@]12Cc3cnn(-c4ccc(F)cc4)c3C=C1CC[C@@H]2CN(CCc1ccccc1F)S(=O)(=O)Cc1cccc(Cl)c1` [Example 106, 1-(3-chlorophenyl)-N-[2-(2-fluorophenyl)ethyl]-N-{[(4αR,5S)-1-(4-fluorophenyl)-4α-methyl-1,4,4α,5,6,7-hexahydrocyclopenta[f]indazol-5-yl]methyl}methanesulfonamide] returned a Ki of 1.7 nM.
Compound `C[C@]12Cc3cnn(-c4ccc(F)cc4)c3C=C1CC[C@@H]2CN(CCc1ccccc1F)S(=O)(=O)Cc1ccccc1Cl` [Example 107, 1-(2-chlorophenyl)-N-[2-(2-fluorophenyl)ethyl]-N-{[(4αR,5S)-1-(4-fluorophenyl)-4α-methyl-1,4,4α,5,6,7-hexahydrocyclopenta[f]indazol-5-yl]methyl}methanesulfonamide] registered a Ki of 1.8 nM.
With `C[C@]12Cc3cnn(-c4ccc(F)cc4)c3C=C1CC[C@@H]2CN(CCc1ccccc1F)S(=O)(=O)Cc1ccccc1C(F)(F)F` [Example 108, N-[2-(2-fluorophenyl)ethyl]-N-{[(4αR,5S)-1-(4-fluorophenyl)-4α-methyl-1,4,4α,5,6,7-hexahydrocyclopenta[f]indazol-5-yl]methyl}-1-[2-(trifluoromethyl)phenyl]methanesulfonamide] the figure was 2.3 nM; with `CC(C1CCC2=Cc3c(cnn3-c3ccc(F)cc3)C[C@@]21C)N(CC1CC1)S(=O)(=O)CC(F)(F)F` (stereo partly drawn) [Example 109, N-(cyclopropylmethyl)-2,2,2-trifluoro-N-{1-[(4αR)-1-(4-fluorophenyl)-4α-methyl-1,4,4α,5,6,7-hexahydrocyclopenta[f]indazol-5-yl]ethyl}ethanesulfonamide], 2.1 nM.
In turn, `C[C@]12Cc3cnn(-c4ccc(F)cc4)c3C=C1CC[C@@H]2CN(CC1CCCO1)S(=O)(=O)Cc1cccc(C(F)(F)F)c1` (stereo partly drawn) [Example 110, N-{[(4αR,5S)-1-(4-fluorophenyl)-4α-methyl-1,4,4α,5,6,7-hexahydrocyclopenta[f]indazol-5-yl]methyl}-N-(tetrahydrofuran-2-ylmethyl)-1-[3-(trifluoromethyl)phenyl]methanesulfonamide] yielded a Ki of 1.4 nM.
With `C[C@]12Cc3cnn(-c4ccc(F)cc4)c3C=C1CC[C@@H]2CN(CCc1ccccc1F)S(=O)(=O)Cc1ccc(Cl)c(Cl)c1` [Example 111, 1-(3,4-dichlorophenyl)-N-[2-(2-fluorophenyl)ethyl]-N-{[(4αR,5S)-1-(4-fluorophenyl)-4α-methyl-1,4,4α,5,6,7-hexahydrocyclopenta[f]indazol-5-yl]methyl}methanesulfonamide] the figure was 1.8 nM; with `C[C@H](O)CN(C[C@H]1CCC2=Cc3c(cnn3-c3ccc(F)cc3)C[C@@]21C)S(=O)(=O)c1ccc(F)c(Cl)c1` [Example 112, 3-chloro-4-fluoro-N-{[(4αR,5S)-1-(4-fluorophenyl)-4α-methyl-1,4,4α,5,6,7-hexahydrocyclopenta[f]indazol-5-yl]methyl}-N-[(2S)-2-hydroxypropyl]benzenesulfonamide], 1.7 nM.
With `C[C@H](O)CN(C[C@H]1CCC2=Cc3c(cnn3-c3ccc(F)cc3)C[C@@]21C)S(=O)(=O)CC(F)(F)F` [Example 113] the figure was 2.2 nM; with `C[C@@H](CN(C[C@H]1CCC2=Cc3c(cnn3-c3ccc(F)cc3)C[C@@]21C)S(=O)(=O)CC(F)(F)F)OS(=O)(=O)CC(F)(F)F` [Example 114, (1S)-2-{{[(4αR,5S)-1-(4-fluorophenyl)-4α-methyl-1,4,4α,5,6,7-hexahydrocyclopenta[f]indazol-5-yl]methyl}[(2,2,2-trifluoroethyl)sulfonyl]amino}-1-methylethyl 2,2,2-trifluoroethanesulfonate], 0.8 nM.
For `C[C@@H](O)CN(C[C@H]1CCC2=Cc3c(cnn3-c3ccc(F)cc3)C[C@@]21C)S(=O)(=O)c1ccc(F)c(Cl)c1` [Example 115, 3-chloro-4-fluoro-N-{[(4αR,5S)-1-(4-fluorophenyl)-4α-methyl-1,4,4α,5,6,7-hexahydrocyclopenta[f]indazol-5-yl]methyl}-N-[(2R)-2-hydroxypropyl]benzenesulfonamide] the value was 2.9 nM; for `C[C@]12Cc3cnn(-c4ccc(F)cc4)c3C=C1CC[C@@H]2CN(CCc1ccccc1O)S(=O)(=O)c1ccccc1F` [Example 116, 2-fluoro-N-{[(4αR,5S)-1-(4-fluorophenyl)-4α-methyl-1,4,4α,5,6,7-hexahydrocyclopenta[f]indazol-5-yl]methyl}-N-[2-(2-hydroxyphenyl)ethyl]benzenesulfonamide], 1.4 nM.
Regarding `C[C@]12Cc3cnn(-c4ccc(F)cc4)c3C=C1CC[C@@H]2CN(CCO)S(=O)(=O)c1ccccc1C(N)=O` [Example 117, 2-{[{[(4αR,5S)-1-(4-fluorophenyl)-4α-methyl-1,4,4α,5,6,7-hexahydrocyclopenta[f]indazol-5-yl]methyl}(2-hydroxyethyl)amino]sulfonyl}benzamide], the Ki stood at 9.4 nM.
With `COCCN(C[C@H]1CCC2=Cc3c(cnn3-c3ccc(F)cc3)C[C@@]21C)S(=O)(=O)CCN1C(=O)c2ccccc2C1=O` [Example 118, 2-(1,3-dioxo-1,3-dihydro-2H-isoindol-2-yl)-N-{[(4αR,5S)-1-(4-fluorophenyl)-4α-methyl-1,4,4α,5,6,7-hexahydrocyclopenta[f]indazol-5-yl]methyl}-N-(2-methoxyethyl)ethanesulfonamide] the figure was 3.8 nM.
Compound `COc1ccccc1CCN(C[C@H]1CCC2=Cc3c(cnn3-c3ccc(F)cc3)C[C@@]21C)S(=O)(=O)Cc1cccc(C(F)(F)F)c1` [Example 119, N-{[(4αR,5S)-1-(4-fluorophenyl)-4α-methyl-1,4,4α,5,6,7-hexahydrocyclopenta[f]indazol-5-yl]methyl}-N-[2-(2-methoxyphenyl)ethyl]-1-[3-(trifluoromethyl)phenyl]methanesulfonamide] came in with a Ki of 2.3 nM.
For `COc1ccccc1CCN(C[C@H]1CCC2=Cc3c(cnn3-c3ccc(F)cc3)C[C@@]21C)S(=O)(=O)CC(F)(F)F` [Example 120, 2,2,2-trifluoro-N-{[(4αR,5S)-1-(4-fluorophenyl)-4α-methyl-1,4,4α,5,6,7-hexahydrocyclopenta[f]indazol-5-yl]methyl}-N-[2-(2-methoxyphenyl)ethyl]ethanesulfonamide] the value was 1.3 nM; for `C[C@]12Cc3cnn(-c4ccc(F)cc4)c3C=C1CC[C@@H]2CN(CCc1ccccc1F)S(=O)(=O)CCN1C(=O)c2ccccc2C1=O` [Example 121, 2-(1,3-dioxo-1,3-dihydro-2H-isoindol-2-yl)-N-[2-(2-fluorophenyl)ethyl]-N-{[(4αR,5S)-1-(4-fluorophenyl)-4α-methyl-1,4,4α,5,6,7-hexahydrocyclopenta[f]indazol-5-yl]methyl}ethanesulfonamide], 5.3 nM.
